Earlier results in patent publication US20190083000A1, “PERSONALIZED FOOD FOR DYSPHAGIA MANAGEMENT” (NESTEC S.A., priority 2016, published 2019).

conditions: database Episuite 4.1

Compound	Volatility: Air/water partition coefficient log K [w/v]	Lipophilicity: Oil/Water partition coefficient log Kow [w/v]
2-Methylpropanal	−2.31 w/v	
CC(=O)C(C)=O [2,3-Butanedione]	−5.09 w/v	−1.34 w/v
CCC(=O)C(C)=O [2,3-Pentanedione]	−4.97 w/v	−0.85 w/v
CCC(C)C=O (stereo not drawn) [2-Methylbutanal]	−2.20 w/v	1.23 w/v
CC(C)CC=O [3-Methylbutanal]	−2.19 w/v	1.23 w/v
CC=O [Acetaldehyde]	−2.56 w/v	−0.17 w/v
CSC [Dimethylsulfide]	−1.49 w/v	0.92 w/v
CCCC(=O)OCC [Ethylbutyrate]	−1.79 w/v	1.85 w/v
C=C(C)[C@H]1CC=C(C)CC1 [Limonene]	0.12 w/v	4.38 w/v
CS [Methanethiol]	−0.97 w/v	0.78 w/v
COc1cc(C=O)ccc1O [Vanillin]	−8.47 w/v	1.05 w/v
